Earlier results, collected in patent publication US20020072734A1, “Chip systems for the controlled emission of substances having a chemosensory effect” (PHARMED HOLDING GMBH, priority 2000, published 2002).
Read-outs that look alike come from different tables or passages of the source.

Assays:
regio olfactoria [1] = conditions: mice; applied to the regio olfactoria
regio olfactoria [2] = conditions: rats; applied to the regio olfactoria

In the case of `CC[C@H](C)[C@@H]1NC(=O)[C@H](Cc2ccc(O)cc2)NC(=O)[C@@H](N)CSSC[C@@H](C(=O)N2CCC[C@H]2C(=O)N[C@@H](CC(C)C)C(=O)NCC(N)=O)NC(=O)[C@H](CC(N)=O)NC(=O)[C@H](CCC(N)=O)NC1=O` [oxytocin], the “rapid effects in the central nervous system (anxiety)” value (regio olfactoria [1]) is given as “relieved anxiety”, the “rapid effects in the central nervous system (depression, aggression)” value (regio olfactoria [1]) is given as “anti-depressive and anti-aggressive” and the “rapid effects in the central nervous system (anxiety)” value (regio olfactoria [2]) is given as “relieved anxiety”. The “rapid effects in the central nervous system (depression, aggression)” value (regio olfactoria [2]) was “anti-depressive and anti-aggressive”.
